Experimental data from paper PMC7979765, “trans-Translation inhibitors bind to a novel site on the ribosome and clear Neisseria gonorrhoeae in vivo” (Nature Communications, 2021).
≈ marks a conversion by molar mass, not a printed value. Where “and” joins values, the source holds several entries; their conditions need not be identical. Equal values may be shown once. Read-outs that look alike come from different tables or passages of the source.

Tests used:
[1] = system: N. gonorrhoeae ATCC 49226; test: Time-kill assay
[2] = system: N. gonorrhoeae strain 49226 (ATCC); test: Frequency of resistance; format: cell-based, Neisseria gonorrhoeae; settings: selection at 4x and 8x MIC
hERG potassium channel = target: T1, hERG potassium channel (Homo sapiens, UniProt Q12809); test: Receptor Profiling 265910; format: binding; settings: probe [3H]dofetilide
T1 construct: purchased Eurofins Discovery Services (Panlabs safety panel)
Description: (§1) Several in vitro selectivity assays were performed at Eurofins Discovery Services using established methods and controls that behaved as expected (Supplementary Tables 5 and 6). […] For receptor panel profiling, MBX-4132 was evaluated at 10 μM and activity of >50% (agonist or antagonist; note that negative % inhibition indicates agonism) was scored as active.

HepG2 cells = test: Mitochondrial toxicity assay, glucose vs galactose; format: cell-based; settings: for % viability: HepG2, replicates
Description: (§2) Mitochondrial toxicity assay — HepG2 cells (ATCC) were seeded and cultured in media containing either glucose or galactose overnight. Test compounds were added at 8 concentrations ([…] from 100 µM to 30 nM) and incubated with the cells for 24 h. Cell viability was measured by the alamarBlue method. The data in Supplementary Table 7 are inconsistent with MBX-4132 disrupting mitochondrial metabolic processes. Assays were performed at Eurofins Cerep Panlabs.

[3] = Mitochondrial toxicity assay, glucose vs galactose; format: cell-based; settings: human, HepG2; for viability at 24 h, 100 µM: Conc. (μM) 1.00E-04; for viability at 24 h, 3 µM: Conc. (μM) 3.00E-06
Description: as §2

Phosphodiesterase PDE4D2 = target: T2, Phosphodiesterase PDE4D2 (Homo sapiens, UniProt Q08499); test: Receptor Profiling 154420; format: biochemical
T2 construct: Eurofins Discovery Services (contract assay) 154420
Description: as §1

[4] = system: Calcium Channel L-Type, Dihydropyridine; test: Receptor Profiling 214600; format: binding, rat; settings: 10 μM
Description: as §1

[5] = HepG2 cells, Galactcose, read-out: Mean % viability
[6] = HepG2 cells, Galactcose, replicates, read-out: % viability
[7] = HepG2 cells, Glucose, read-out: Mean % viability
[8] = HepG2 cells, Glucose, replicates, read-out: % viability

T1 sequence (Q12809 whole entry): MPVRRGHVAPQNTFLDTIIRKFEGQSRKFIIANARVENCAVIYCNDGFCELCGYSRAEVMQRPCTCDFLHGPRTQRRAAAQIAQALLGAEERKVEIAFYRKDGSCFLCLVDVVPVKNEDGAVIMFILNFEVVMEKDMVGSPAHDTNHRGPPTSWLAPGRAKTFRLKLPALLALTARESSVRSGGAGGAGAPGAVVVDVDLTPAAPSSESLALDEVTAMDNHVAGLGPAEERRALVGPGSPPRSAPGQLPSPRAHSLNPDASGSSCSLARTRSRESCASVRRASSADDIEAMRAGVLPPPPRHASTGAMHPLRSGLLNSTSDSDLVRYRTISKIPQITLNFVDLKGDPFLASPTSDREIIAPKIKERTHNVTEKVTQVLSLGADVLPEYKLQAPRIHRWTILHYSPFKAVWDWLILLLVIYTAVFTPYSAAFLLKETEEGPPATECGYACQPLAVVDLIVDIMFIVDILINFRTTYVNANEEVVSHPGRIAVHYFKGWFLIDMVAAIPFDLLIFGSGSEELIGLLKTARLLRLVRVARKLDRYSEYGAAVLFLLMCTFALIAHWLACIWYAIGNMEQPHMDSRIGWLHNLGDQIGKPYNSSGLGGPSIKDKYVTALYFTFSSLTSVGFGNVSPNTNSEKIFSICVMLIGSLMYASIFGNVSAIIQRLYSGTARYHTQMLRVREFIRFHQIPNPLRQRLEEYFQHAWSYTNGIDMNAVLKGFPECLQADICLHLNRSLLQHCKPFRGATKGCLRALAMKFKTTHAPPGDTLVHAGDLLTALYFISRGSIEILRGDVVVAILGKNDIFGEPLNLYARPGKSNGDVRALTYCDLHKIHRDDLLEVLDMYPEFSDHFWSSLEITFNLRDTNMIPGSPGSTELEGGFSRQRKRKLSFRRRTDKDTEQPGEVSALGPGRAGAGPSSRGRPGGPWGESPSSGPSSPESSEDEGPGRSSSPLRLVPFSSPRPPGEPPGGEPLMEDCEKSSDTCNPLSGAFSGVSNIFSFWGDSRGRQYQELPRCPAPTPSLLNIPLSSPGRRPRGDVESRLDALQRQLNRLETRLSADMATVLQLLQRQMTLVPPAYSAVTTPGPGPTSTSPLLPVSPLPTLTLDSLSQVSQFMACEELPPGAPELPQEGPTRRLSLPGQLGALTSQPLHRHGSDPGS
T2 sequence (Q08499 303-809 limits assumed): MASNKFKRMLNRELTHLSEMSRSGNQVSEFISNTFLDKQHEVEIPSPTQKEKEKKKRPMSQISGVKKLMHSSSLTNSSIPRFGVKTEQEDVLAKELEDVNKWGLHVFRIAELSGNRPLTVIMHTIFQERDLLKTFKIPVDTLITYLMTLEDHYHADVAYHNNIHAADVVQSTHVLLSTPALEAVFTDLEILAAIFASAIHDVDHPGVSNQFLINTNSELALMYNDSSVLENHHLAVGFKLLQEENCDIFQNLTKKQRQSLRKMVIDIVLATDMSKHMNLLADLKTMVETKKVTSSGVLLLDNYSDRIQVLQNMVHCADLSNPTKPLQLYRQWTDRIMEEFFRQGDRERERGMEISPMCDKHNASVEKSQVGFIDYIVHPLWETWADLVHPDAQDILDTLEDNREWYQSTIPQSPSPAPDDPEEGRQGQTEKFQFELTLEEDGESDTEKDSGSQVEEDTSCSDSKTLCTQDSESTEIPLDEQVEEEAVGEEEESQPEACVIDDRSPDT

Which “CFU/mL, replicates 1-3” value ([1]; 4X MIC, 6 h) does the source give for `O=C(Nc1nnc(-c2ccc(F)cc2)o1)N1CCc2ccccc2C1` [MBX-4132] here?
The value was 3000000 CFU/mL (2×) and 2600000 CFU/mL.

And the “AVE CFU/ml” value ([1]; 4X MIC, 8 h)?
Its value is 760000 CFU/ml and 7.60E+05 CFU/ml.

What about the “CFU/mL, replicates 1-3” value ([1]; 4X MIC, 8 h) of the same compound?
The value was 780000 CFU/mL and 800000 CFU/mL and 700000 CFU/mL.

And the “AVE CFU/ml” value ([1]; 4X MIC, 24 h)?
Its value is 0 CFU/ml and 0.00E+00 CFU/ml.

What about the “CFU/mL, replicates 1-3” value ([1]; 4X MIC, 24 h) of the same compound?
The value was 0 CFU/mL.

What about the “AVE CFU/ml” value ([1]; 8X MIC, 0 h) of the same compound?
The value was 9800000 CFU/ml.

And the “AVE CFU/ml” value ([1]; 8X MIC, 1 h)?
The value was 5.13E+06 CFU/ml and 5133333 CFU/ml.

What about the “CFU/mL, replicates 1-3” value ([1]; 8X MIC, 1 h) of the same compound?
Its value is 5200000 CFU/mL and 4600000 CFU/mL and 5600000 CFU/mL.

What about the “AVE CFU/ml” value ([1]; 8X MIC, 2 h) of the same compound?
The value was 4.93E+06 CFU/ml and 4933333 CFU/ml.

And the “CFU/mL, replicates 1-3” value ([1]; 8X MIC, 2 h)?
Its value is 5400000 CFU/mL and 5200000 CFU/mL and 4200000 CFU/mL.

What about the “AVE CFU/ml” value ([1]; 8X MIC, 4 h) of the same compound?
Its value is 3000000 CFU/ml and 3.00E+06 CFU/ml.

What about the “CFU/mL, replicates 1-3” value ([1]; 8X MIC, 4 h) of the same compound?
Its value is 3000000 CFU/mL and 2800000 CFU/mL and 3200000 CFU/mL.

And the “AVE CFU/ml” value ([1]; 8X MIC, 6 h)?
Its value is 993333 CFU/ml and 9.93E+05 CFU/ml.

And the “CFU/mL, replicates 1-3” value ([1]; 8X MIC, 6 h)?
Its value is 1060000 CFU/mL and 940000 CFU/mL and 980000 CFU/mL.

What about the “AVE CFU/ml” value ([1]; 8X MIC, 8 h) of the same compound?
Its value is 433333 CFU/ml and 4.33E+05 CFU/ml.

And the “CFU/mL, replicates 1-3” value ([1]; 8X MIC, 8 h)?
Its value is 400000 CFU/mL and 480000 CFU/mL and 420000 CFU/mL.

And the “AVE CFU/ml” value ([1]; 8X MIC, 24 h)?
Its value is 0 CFU/ml and 0.00E+00 CFU/ml.

What about the “CFU/mL, replicates 1-3” value ([1]; 8X MIC, 24 h) of the same compound?
The value was 0 CFU/mL.

What about the MIC ([1]; Neisseria gonorrhoeae, ATCC49226) of the same compound?
Its MIC is 0.5 µg/mL (≈ 1.48 µM).

What about the bactericidal concentration ([1]; time-kill, N. gonorrhoeae) of the same compound?
Its bactericidal concentration is at least 4 X MIC.

And the “frequency of spontaneous mutants resistant” value [2]?
The value was < 1.2 × 10^−9.

And the inhibition at 10 µM (hERG potassium channel)?
Its inhibition at 10 µM is 27%.

What about the “% viability” value (HepG2 cells; Galactcose, Conc. (μM) 1.00E-04) of the same compound?
The value was 62.7%.

What about the “% viability” value (HepG2 cells; Galactcose, Conc. (μM) 3.00E-05) of the same compound?
The value was 99.1%.

What about the “% viability” value (HepG2 cells; Galactcose, Conc. (μM) 3.00E-06) of the same compound?
Its value is 94.2%.

And the “% viability” value (HepG2 cells; Glucose, Conc. (μM) 1.00E-04)?
Its value is 85.6%.

What about the “% viability” value (HepG2 cells; Glucose, Conc. (μM) 1.00E-05) of the same compound?
The value was 107.5%.

What about the “% viability” value (HepG2 cells; Glucose, Conc. (μM) 3.00E-05) of the same compound?
The value was 106.5%.

What about the “% viability” value (HepG2 cells; Glucose, Conc. (μM) 3.00E-06) of the same compound?
Its value is 103.0%.

And the “differential toxicity glucose vs galactose (in words)” value (HepG2 cells; HepG2 cells)?
Its value is “did not induce differential toxicity”.

What about the viability at 24 h, 1e-05 μM ([3]; Glucose, Conc. (μM) 1.00E-05, replicates) of the same compound?
The viability at 24 h, 1e-05 μM was 108%.

What about the viability at 24 h, 100 µM [3, 5] of the same compound?
Its viability at 24 h, 100 µM is 64%.

And the viability at 24 h, 100 µM [3, 6]?
Its viability at 24 h, 100 µM is 65.3%.

And the viability at 24 h, 10 µM ([3]; HepG2 cells, Galactcose, Conc. (μM) 1.00E-05)?
Its viability at 24 h, 10 µM is 95.4%.

And the viability at 24 h, 3 µM [3, 5]?
The viability at 24 h, 3 µM was 94.1%.

What about the viability at 24 h, 3 µM [3, 6] of the same compound?
The viability at 24 h, 3 µM was 93.9%.

What about the viability at 24 h, 30 µM ([3]; HepG2 cells, Galactose, Conc. (μM) 3.00E-05, 24 h) of the same compound?
The viability at 24 h, 30 µM was 96.8%.

What about the viability at 24 h, 100 µM [3, 7] of the same compound?
Its viability at 24 h, 100 µM is 81.9%.

And the viability at 24 h, 100 µM [3, 8]?
The viability at 24 h, 100 µM was 78.3%.

And the viability at 24 h, 10 µM ([3]; HepG2 cells, Glucose, Conc. (μM) 1.00E-05)?
Its viability at 24 h, 10 µM is 108%.

What about the viability at 24 h, 3 µM [3, 7] of the same compound?
Its viability at 24 h, 3 µM is 110%.

And the viability at 24 h, 3 µM [3, 8]?
Its viability at 24 h, 3 µM is 116%.

And the inhibition at 10 µM (Phosphodiesterase PDE4D2)?
The inhibition at 10 µM was 3%.

What about the “% inhibition” value [4] of the same compound?
The value was 11%.
